What was measured:
clinical = conditions: human, in vivo; for AUC(0-t): AUC0-23h; for AUC(0-t) / AUC(0-inf) / Cmax: geometric mean (geometric CV); for AUC(0-inf): AUC0-∞; for Tmax: median (range); for half-life: t1/2, geometric mean (geometric CV)
[1] = Plasma pharmacokinetics of cocktail index drugs and their metabolites, five-phase crossover trial;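 further: parameters derived from plasma drug levels quantified by LC–MS with internal standards after acetonitrile protein precipitation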
[2] = phase IV: clopidogrel 300 mg pretreatment + full cocktail
[3] = phase V: gemfibrozil 600 mg b.i.d. 3 days pretreatment + full cocktail

Structure (SMILES) | AUC(0-t) (clinical; phase II: Geneva cocktail) | AUC(0-t) (clinical; [2]) | AUC(0-t) (clinical; [3]) | AUC(0-inf) (clinical; phase II: Geneva cocktail) | AUC(0-inf) (clinical; [2]) | AUC(0-inf) (clinical; [3]) | Cmax (clinical; phase II: Geneva cocktail) | Cmax (clinical; [2]) | Cmax (clinical; [3]) | Tmax (clinical; phase II: Geneva cocktail) | Tmax (clinical; [3]) | half-life (clinical; phase II: Geneva cocktail) | half-life (clinical; [2]) | half-life (clinical; [3]) | Cmax, geometric mean (geometric CV) ([1]; phase II: Geneva cocktail) | Tmax, median (range) ([1]; phase II: Geneva cocktail) | Tmax, median (range) [1, 2] | t1/2, geometric mean (geometric CV) [1, 2] | AUC0-23h, geometric mean (geometric CV) [1, 3] | t1/2, geometric mean (geometric CV) [1, 3] | further results
CN1CC[C@@]23CCCC[C@@H]2[C@@H]1Cc1ccc(O)cc13 [Dextrorphan, dextrorphan] | 8.07 ng·h/mL | 9.66 ng·h/mL | 17.8 ng·h/mL | 8.35 ng·h/mL | 10 ng·h/mL | 17.8 ng·h/mL | 1.82 ng/mL | 2.05 ng/mL | 3.63 ng/mL | 2 h | 2 h | 2.5 h | 2.68 h | 2.77 h | – | – | – | – | – | – | Tmax (clinical; [2]): 2 h
Cc1ncc2n1-c1ccc(Cl)cc1C(c1ccccc1F)=NC2 [Midazolam, midazolam] | 9.89 ng·h/mL | 11.3 ng·h/mL | 8.06 ng·h/mL | 9.82 ng·h/mL | 11.2 ng·h/mL | 7.98 ng·h/mL | – | 4.33 ng/mL | 3.25 ng/mL | – | – | 2.29 h | 2.4 h | 2.29 h | 4.03 (36.4%) ng/mL | 0.5 (0.5-1.0) h | 1.0 (0.5-1.0) h | – | – | – | –
COc1ccc2[nH]c([S+]([O-])Cc3ncc(C)c(OC)c3C)nc2c1 (stereo not shown) [Omeprazole, omeprazole] | 177 ng·h/mL | 214 ng·h/mL | – | 177 ng·h/mL | 214 ng·h/mL | 149 ng·h/mL | – | 167 ng/mL | 98 ng/mL | – | – | 0.76 h | – | – | 144 (88.5%) ng/mL | – | – | 0.69 (30.9%) h | 150 (62.8%) ng×h/mL | 0.78 (59.9%) h | –
COc1ccc2c(c1)[C@]13CCCC[C@@H]1[C@H](C2)N(C)CC3 [Dextromethorphan, dextromethorphan] | 4.9 ng·h/mL | 6.01 ng·h/mL | 6.07 ng·h/mL | 5.58 ng·h/mL | 6.68 ng·h/mL | 6.82 ng·h/mL | 0.745 ng/mL | 0.858 ng/mL | 0.898 ng/mL | – | 2.5 h | 4.24 h | 4.61 h | 4.38 h | – | 2.0 (2.0-4.0) h | 2.0 (2.0-3.0) h | – | – | – | –
CC(C(=O)O)c1ccc(-c2ccc(O)cc2)c(F)c1 (stereo not shown) [4’-OH-flurbiprofen, 4′‐hydroxyflurbiprofen] | 224 ng·h/mL | – | – | 263 ng·h/mL | – | – | 46.4 ng/mL | – | – | 1.8 h | – | 3.44 h | – | – | – | – | – | – | – | – | –
COc1ccc2nc([S+]([O-])Cc3ncc(CO)c(OC)c3C)[nH]c2c1 (stereo not shown) [5’-OH-omeprazole, 5′‐hydroxyomeprazole] | – | – | – | – | – | – | – | – | – | – | – | – | – | – | 99.8 (87.9%) ng/mL | 1.5 (1.0-2.0) h | 1.5 (1.0-3.0) h | 1.04 (15.5%) h | 253 (37.6%) ng×h/mL | 1.34 (32.6%) h | AUC0-23h, geometric mean (geometric CV) ([1]; phase II: Geneva cocktail): 194 (35.7%) ng×h/mL; AUC0-∞, geometric mean (geometric CV) ([1]; phase II: Geneva cocktail): 193 (36.1%) ng×h/mL; t1/2, geometric mean (geometric CV) ([1]; phase II: Geneva cocktail): 1.17 (36.9%) h; AUC0-23h, geometric mean (geometric CV) [1, 2]: 213 (14.6%) ng×h/mL; AUC0-∞, geometric mean (geometric CV) [1, 2]: 212 (14.5%) ng×h/mL; Cmax, geometric mean (geometric CV) [1, 2]: 115 (23.8%) ng/mL; AUC0-∞, geometric mean (geometric CV) [1, 3]: 253 (36.9%) ng×h/mL; Cmax, geometric mean (geometric CV) [1, 3]: 104 (76.9%) ng/mL; Tmax, median (range) [1, 3]: 1.5 (1.0-4.0) h

Reference: article PMC12087695, “A Phenotyping Tool for Seven Cytochrome P450 Enzymes and Two Transporters: Application to Examine the Effects of Clopidogrel and Gemfibrozil” (Clinical Pharmacology and Therapeutics, 2025)
